In patent publication US20140011769A1, “Methods of Treating Retroviral Infections and Related Dosage Regimes” (Chimerix, Inc., priority 2012, published 2014):

System: HTLV-I proviral DNA
Experiment: PCR of proviral HTLV-I DNA in co-cultured PBMCs
Assay type: cell-based
Settings: for relative intensity of amplified HTLV-I versus infected controls (PBMC+MT-2 cells): two and four weeks, all concentrations; for concentration giving less integration of proviral DNA by PCR: weeks 2 and 4
Experimental: Co-Culture for HTLV-I Replication: Cell cultures were incubated at 37° C./5% CO2 for four weeks. Cell viability and density was monitored by trypan blue dye exclusion test. Cell density was readjusted to 8×10^5 cells per mL on days 3, 7, 10, 14, 21 and 28. Compound was added with the half-volume fresh medium exchange on days 3, 7, and 10. Supernatant was collected on days 14, 21 and 28 for measurement of HTLV-I virus replication by p19 Gag ELISA. Cell samples were also collected on days 14 and 28 for genomic DNA extraction and PCR analysis of HTLV-I proviral DNA. Untreated PBMCs co-cultured with MT-2 cells, PBMCs alone, and mitomycin C-treated MT-2 cells alone were cultured in parallel as controls.
(§1) PCR of Proviral HTLV-I DNA: The presence of HTLV-I proviral DNA at 2 and 4 weeks in treated and untreated PBMC cells was examined using a PCR assay. Total DNA was extracted from frozen cell pellets using Qiagen DNEasy Blood and Tissue kits according to the manufacturer's recommended method for extraction from cultured cells. DNA was eluted in 200 μl of Buffer AE and the concentration was determined by absorbance at 260 nm in a Spectramax 386 Plus plate reader. Fifty nanograms of extracted DNA was subjected to two separate PCR amplifications using primer sets for HTLV-I and human GAPDH. Amplifications were performed using PCR primer sets designed at ImQuest BioSciences and synthesized by IDT (Coraville, Id.). Amplification of HTLV-I proviral DNA was performed using 50 ng of extracted DNA in a 25 μl reaction volume with TaqPro complete (Denville Scientific, Metuchen, N.J.) and DNA oligonucleotide primers (0.2 μM each) HTLV-3281-F (5′-AACTTCAAGCCCTACTTGGCGAGA-3′[SED ID NO.: 1]) and HTLV-3666-R (5′-TGTATGGTTTGGCAGAGTAGCCCA-3′ [SED ID NO.: 2]). Amplification of human GAPDH DNA sequences was performed using 50 ng of extracted DNA in a 25 μl reaction volume with TaqPro complete and DNA oligonucleotide primers (0.2 μM each) hGAPDH-gF1 (5′-GAAGGAAATGAATGGGCAGCCGTT-3′ [SED ID NO.: 3]) and GAPDH-gR1 (5′-ATTTGCCAAGTTGCCTGTCCTTCC-3′ [SED ID NO.: 4]). Amplification conditions for both HTLV-I and GAPDH consisted of an initial denaturation step of 95° C. for 5 min followed by 40 cycles of 95° C. for 30 sec, 62° C. for 30 sec, 72° C. for 45 sec and a final extension of 72° C. for 5 min. The amplified DNA products were evaluated by agarose gel electrophoresis and ethidium bromide staining.
as §1, with “AGA-3′ [SED” for “AGA-3′[SED”, “5])” for “1])”, “6]).” for “2]).”, “7])” for “3])”, “8]). […]” for “4]). Amplification conditions for both HTLV-I and GAPDH consisted of an initial denaturation step of 95° C. for 5 min followed by 40 cycles of 95° C. for 30 sec, 62° C. for 30 sec, 72° C. for 45 sec and a final extension of 72° C. for 5 min. The amplified DNA products were evaluated by agarose gel electrophoresis and ethidium bromide staining.”

SMILES | relative intensity of amplified HTLV-I versus infected controls (PBMC+MT-2 cells) | concentration giving less integration of proviral DNA by PCR | concentration inhibiting accumulation of HTLV proviral DNA (two weeks of treatment) [µM] | also measured
Cc1cn([C@H]2C[C@H](N=[N+]=[N-])[C@@H](CO)O2)c(=O)[nH]c1=O [AZT, 3′-azido-2′,3′-dideoxythymidine] | either equal or less than | above 0.1 μM | – | –
Nc1ccn(C[C@@H](CO)OCP(=O)(O)O)c(=O)n1 [Cidofovir, (S)-9-(3-hydroxy-2-phosphonylmethoxypropyl)cytosine] | – | – | 100 | –
CCCCCCCCCCCCCCCCOCCCOP(=O)(O)CO[C@H](CO)Cn1ccc(N)nc1=O [HDP-CDV, hexadecyloxypropyl cidofovir] | – | – | ≥ 0.2 | concentration inhibiting accumulation of HTLV proviral DNA (four weeks of treatment): all concentrations
CCCCCCCCCCCCCCCCOCCCOP(=O)(O)CO[C@H](C)Cn1cnc2c(N)ncnc21 [HDP-TFV, 3-(hexadecyloxy)propyl hydrogen ((R)-1-(6-amino-9H-purin 9-yl)propan-2-yloxy)methylphosphonate] | – | – | – | inhibition of HTLV proviral DNA accumulation (four weeks of treatment, lower concentrations): apparent
C[C@H](Cn1cnc2c(N)ncnc21)OCP(=O)(O)O [Tenofovir, (R)-9-(2-phosphonylmethoxypropyl)adenine] | either equal or less than | 25 µM | – | –
